Measurements reported in patent US20230219900A1, “Sodium 2-[(4S)-8-fluoro-2-[4-(3-methoxyphenyl)piperazin-1-yl]-3-[2-methoxy-5-(trifluoromethyl)phenyl]-4H-quinazolin-4-yl]acetate monohydrate, its preparation and use” (AIC246 AG & CO. KG, priority 2020, published 2023).

Key:
Type in all cases: physicochemical
[1] = Stability experiments: ageing (ambient conditions); settings: for Time stable at ambient conditions: monohydrate
[2] = Thermal stability / decomposition by thermogravimetric analysis (TGA)
Protocol: Thermogravimetric analysis (TGA): Thermogravimetric analyses were recorded in a Mettler Toledo TGA/SDTA851 with a balance MT1 type. Approximately 3-4 mg of sample were weighed (using a MX5 Mettler Toledo microbalance) into 40 μL aluminium crucibles with a pinhole lid and heated under nitrogen (10 mL/min) at 10° C./min from 30° C. to 300° C. Programs used: Data collection and evaluation with software STARe.

[3] = Stability experiments: ageing (humidity chamber)
[4] = Stability experiments: heating (vacuum oven); settings: 2-3 mbar
[5] = Solubility in an aqueous medium; settings: in particular at physiological pH
Dynamic vapor sorption = assay: Dynamic vapor sorption
Protocol: The sodium (S)-{8-fluoro-2-[4-(3-methoxyphenyl)piperazine-1-yl]-3-[2-methoxy (trifluoromethyl)phenyl]-3,4-dihydroquinazoline-4-yl}acetate monohydrate obtained from examples 07 and 08 were analyzed using X-Ray Diffraction, NMR spectroscopy, Thermal gravimetric analysis, Differential scanning calorimetry and dynamic vapor sorption.

[6] = Storage stability in an aqueous medium; settings: in particular at physiological pH

| Compound | Stability under ambient conditions (in words) [1] | Stability, ageing (ambient conditions) ([1]; 25° C., 30-40% RH, 24 hours) | Stability, ageing (ambient conditions) ([1]; within 24 hours) | Decomposition temperature (TGA) ([2]; TGA) | Stability, ageing (humidity chamber) ([3]; 25° C./60% RH, 24-72 hours) | Stability, heating (vacuum oven) ([4]; 40° C., 15 h) | Stability, heating (vacuum oven) ([4]; 50° C., 60 h) | Solubility [5] | Dynamic vapor sorption weight increase (Dynamic vapor sorption; from 10 to 80% RH) | Dynamic vapor sorption weight increase (Dynamic vapor sorption; from 80 to 90% RH) | Stability, ageing (ambient conditions, closed vial) ([1]; after 4 weeks) | Time stable at ambient conditions ([1]; listed as Form B) | Time stable at ambient conditions [1] | Temperature up to which thermally stable (TGA) ([2]; as judged by TGA) | Storage stability [6] | Stability, ageing (humidity chamber) ([3]; 25° C./60% RH, 72 hours) | Stability, ageing (humidity chamber) ([3]; 30° C./75% RH, 48 hours) | Ageing at higher temperatures and higher humidity ([3]; higher temperatures and higher humidity) |
| --- | --- | --- | --- | --- | --- | --- | --- | --- | --- | --- | --- | --- | --- | --- | --- | --- | --- | --- |
| COc1cccc(N2CCN(C3=Nc4c(F)cccc4[C@H](CC(=O)[O-])N3c3cc(C(F)(F)F)ccc3OC)CC2)c1.[Na+] [Form A, Sodium (S)-{8-fluoro-2-[4-(3-methoxyphenyl)piperazine-1-yl]-3-[2-methoxy-5-(trifluoromethyl)phenyl]-3,4-dihydroquinazoline-4-yl}acetate] | not stable under ambient conditions | 25° C., 30-40% RH, 24 hours: Turns into | Complete transition into Form B within in | Decomposition at ca. 250 °C | 25° C./60% RH, 24-72 hours: Turns into |  |  |  |  |  |  |  |  |  |  |  |  |  |
| COc1cccc(N2CCN(C3=Nc4c(F)cccc4[C@H](CC(=O)[O-])N3c3cc(C(F)(F)F)ccc3OC)CC2)c1.O.[Na+] [sodium letermovir monohydrate, sodium 2-[(4S)-8-fluoro-2-[4-(3-methoxyphenyl)piperazin-1-yl]-3-[2-methoxy-5-(trifluoromethyl)phenyl]-4H-quinazolin-4-yl]acetate monohydrate] |  |  |  |  |  | 40° C., 2-3 mbar, 15 h: No changes, | 50° C., 2-3 mbar, 60 h: No changes | readily soluble | >9.5% weight increase from 10 to 80% RH | >8% weight increase from 80 to 90% RH | No significant changes after 4 weeks. | over 6 months | over 4 weeks | above 80 °C | good storage stability | 25° C./60% RH, 72 hours: minor changes | 30° C./75% RH, 48 hours: amorphous | does not age |
